Measured values published in ChEMBL document CHEMBL2434925, “Synthesis and antiviral activity of a novel class of (5-oxazolyl)phenyl amines” (Eur J Med Chem, 2013).

Assays:
Hepatitis C virus = assay: Antiviral activity against HCV expressing pFL-J6/JFH/JC1 infected in human Huh7.5 cells assessed as inhibition of viral RNA synthesis after 96 hrs by one-step RT-PCR analysis; type: functional, organism-based, Hepacivirus hominis; conditions: Huh-7, 96 h
[1] = Cytotoxicity against human Huh7.5 cells after 96 hrs by MTT assay; type: cell-based, Huh-7
Huh-7 = assay: Selectivity index, ratio of CC50 for human Huh7.5 cells to IC50 for HCV expressing pFL-J6/JFH/JC1; type: functional

## CCC[C@H](NC(=O)[C@@H]1[C@H]2CCC[C@H]2CN1C(=O)[C@@H](NC(=O)[C@@H](NC(=O)c1cnccn1)C1CCCCC1)C(C)(C)C)C(=O)C(=O)NC1CC1 [TELAPREVIR]
Hepatitis C virus
  IC50: < 0.14 µM
[1]
  CC50 at 96 h: 37.5 µM
Huh-7
  Ratio CC50/IC50: > 268
